After the bases stand the sugars from the 5' end (letter, count) and the backbone: PS all phosphorothioate, else s phosphorothioate and o phosphodiester by linkage. Methylation of C is not given here. l = locked nucleic acid (LNA); d = 2'-deoxy (DNA)
Target: SNHG14
Settings: ASO
[1] = Mouse Primary Neuronal Cell, 0.005 µM

Row | Sequence | target mRNA inhibition (Human Neuronal Cell, 7.5 µM) [%] | further results
1 | GCAACATTATTAACCACCT (sugars ldddddddddddlldldll, PS) | 39 | –
2 | ATTGATTCAATTCCCTT (sugars ldlddddddddllldll, PS) | 47 | –
3 | CAACATTATTAACCACCTT (sugars ldldddddddddddldlll, PS) | 52 | –
4 | GCACATTCTTTCTATAC (sugars l1 d1 l3 d8 l4, PS) | 59 | –
5 | ATTTTTTTCTTACTATCTTC (sugars lldlddddddddddlddlll, PS) | 57 | –
6 | TAAAATTATTTATACACCAT (sugars l7 d6 l1 d3 l3, PS) | 51 | –
7 | GCTTTTAACCAGAGTGGCAT (sugars l1 d16 l3, PS) | 53 | –
8 | CTACACATCTTGTATAC (sugars l3 d11 l3, PS) | – | target mRNA inhibition (Human Neuronal Cell, 0.2 µM): 40%; target mRNA inhibition (Human Neuronal Cell, 1 µM): 52%
9 | CAGGCAGATAACCTCCAA (sugars l3 d12 l3, PS) | – | target mRNA inhibition (Human Neuronal Cell, 0.2 µM): 12%; target mRNA inhibition (Human Neuronal Cell, 1 µM): 20%; target mRNA inhibition (Human Neuronal Cell, 5 µM): 18%
10 | TTTATCAATATCTTCTCA (sugars lllddlddddddldldll, PS) | 37 | –
11 | ACTCTGCAATACACCAA (sugars l2 d1 l2 d9 l3, PS) | 55 | –
12 | AATGCTCACACTAATT (sugars l4 d10 l2, PS) | – | target mRNA inhibition (Human Neuronal Cell, 0.2 µM): 37%; target mRNA inhibition (Human Neuronal Cell, 1 µM): 54%
13 | TATGACTTATTCCATA (sugars l2 d10 l4, PS) | – | target mRNA inhibition (Human Neuronal Cell, 0.2 µM): 18%; target mRNA inhibition (Human Neuronal Cell, 1 µM): 14%
14 | ATCTCATGACCACCTA (sugars l3 d10 l3, PS) | – | target mRNA inhibition (Human Neuronal Cell, 0.2 µM): 60%; target mRNA inhibition (Human Neuronal Cell, 1 µM): 70%
15 | TTTTTATACCTTTCTTTAAC (sugars lldllddddddddllddlll, PS) | 60 | –
16 | TTTTTTCTTACTATCTTCAA (sugars l1 d13 l1 d2 l3, PS) | 60 | –
17 | ACCTACATCTCATACTT (sugars l2 d13 l2, PS) | – | target mRNA inhibition (Human Neuronal Cell, 0.2 µM): 3%; target mRNA inhibition (Human Neuronal Cell, 1 µM): -18%; target mRNA inhibition (Human Neuronal Cell, 5 µM): 7%; target mRNA inhibition [1]: 88.6%
18 | TTCTGTATACACCATCC (sugars l3 d1 l1 d10 l2, PS) | 54 | –
19 | CCTACATCTCATACTT (sugars l2 d10 l4, PS) | – | target mRNA inhibition [1]: 96.5%
20 | AAATTATTTATACACCATCA (sugars llddldldddddddddllll, PS) | 67 | –
21 | TATTGATTCAATTCCCT (sugars ldlldddddddllldll, PS) | 19 | –
22 | GTTTCCATCTACTATTAA (sugars ldddldddddddldllll, PS) | 62 | –
23 | TGTTTATACCCTTTCCAA (sugars l1 d4 l1 d9 l3, PS) | 56 | –

Row | Sequence | target mRNA inhibition (Human Neuronal Cell, 7.5 µM) [%] | further results
24 | TTACTCTTTGATTTCAT (sugars l3 d11 l3, PS) | – | target mRNA inhibition (Human Neuronal Cell, 0.2 µM): 34%; target mRNA inhibition (Human Neuronal Cell, 1 µM): 34%
25 | CTGTATACACCATCCCA (sugars l1 d2 l2 d10 l2, PS) | 61 | –
26 | TCCTCTGCTTATAACTT (sugars l3 d12 l2, PS) | – | target mRNA inhibition (Human Neuronal Cell, 0.2 µM): 53%; target mRNA inhibition (Human Neuronal Cell, 1 µM): 62%
27 | TGTCATCTACAAATCA (sugars l4 d10 l2, PS) | – | target mRNA inhibition (Human Neuronal Cell, 0.2 µM): 50%; target mRNA inhibition (Human Neuronal Cell, 1 µM): 46%
28 | AAAATTATTTATACACCATC (sugars lldllldddddddlddllll, PS) | 52 | –
29 | ATTTATTTCCATTTATTTTC (sugars ldlddlddddddddllldll, PS) | 58 | –
30 | TTATAGCCATTCTATCT (sugars ldlllddddddldddll, PS) | 44 | –
31 | ATTGATTCAATTCCCTT (sugars ldddldddddddldlll, PS) | 62 | –
32 | TTACCTACATCTCATACTT (sugars l3 d13 l3, PS) | – | target mRNA inhibition (Human Neuronal Cell, 0.2 µM): -12%; target mRNA inhibition (Human Neuronal Cell, 1 µM): -3%; target mRNA inhibition (Human Neuronal Cell, 5 µM): 13%; target mRNA inhibition [1]: 86.7%
33 | ACTCTGCAATACACCAA (sugars lldlddddddddlldll, PS) | 65 | –
34 | TGTTTCCATCTACTATTA (sugars lddldddddddddlldll, PS) | 63 | –
35 | GTTCTCTTTATTTCTTCT (sugars l2 d12 l4, PS) | – | target mRNA inhibition (Human Neuronal Cell, 0.2 µM): 31%; target mRNA inhibition (Human Neuronal Cell, 1 µM): 42%
36 | TTACACTTAATTATACTTCC (sugars l2 d4 l1 d11 l2, PS) | 41 | –
37 | AATTATTTATACACCAT (sugars l2 d11 l4, PS) | – | target mRNA inhibition (Human Neuronal Cell, 0.2 µM): 2%; target mRNA inhibition (Human Neuronal Cell, 1 µM): 32%
38 | TTCCATGCAAACTTTA (sugars l4 d10 l2, PS) | – | target mRNA inhibition (Human Neuronal Cell, 0.2 µM): 49%; target mRNA inhibition (Human Neuronal Cell, 1 µM): 64%
39 | AACCAATTATACTTACA (sugars l4 d11 l2, PS) | – | target mRNA inhibition (Human Neuronal Cell, 0.2 µM): 40%; target mRNA inhibition (Human Neuronal Cell, 1 µM): 51%
40 | TTATACCTTTCTTTAACC (sugars l4 d12 l2, PS) | – | target mRNA inhibition (Human Neuronal Cell, 0.2 µM): 38%; target mRNA inhibition (Human Neuronal Cell, 1 µM): 57%
41 | TATCTTTGACATTCCAT (sugars l2 d11 l4, PS) | – | target mRNA inhibition (Human Neuronal Cell, 0.2 µM): 48%; target mRNA inhibition (Human Neuronal Cell, 1 µM): 52%
42 | TTCTACTATACTTTCCTCT (sugars l1 d13 l1 d2 l2, PS) | 47 | –
43 | ATTTATTTCCATTTATTTTC (sugars ldllddddddddddlddlll, PS) | 60 | –
44 | CCATTCTATCTGCCAAA (sugars l2 d11 l4, PS) | – | target mRNA inhibition (Human Neuronal Cell, 0.2 µM): 54%; target mRNA inhibition (Human Neuronal Cell, 1 µM): 69%
45 | TTTTTATACCTTTCTTTAAC (sugars ldddlldddddddlddddll, PS) | 15 | –
46 | TGAAAATCTCAACTACCAT (sugars ldllddddddddlddldll, PS) | 44 | –

Row | Sequence | target mRNA inhibition (Human Neuronal Cell, 7.5 µM) [%] | further results
47 | ATCTCATGACCACCTAA (sugars lddlldddddddldlll, PS) | 68 | –
48 | AAATTATTTATACACCATCA (sugars l4 d10 l1 d2 l3, PS) | 66 | –
49 | TCTTTCCATTTATTTCCATT (sugars l2 d4 l1 d11 l2, PS) | 48 | –
50 | GCACATTCTTTCTATACC (sugars l1 d1 l2 d11 l3, PS) | 64 | –
51 | CTTTTAACCAGAGTGGCA (sugars l1 d14 l3, PS) | 61 | –
52 | TGTTTCCATCTACTATTA (sugars ldlldlddddddddddll, PS) | 60 | –
53 | TTTACACTTAATTATACTTC (sugars lddldldddddddlldllll, PS) | 36 | –
54 | AAAGATCATTCTCAACAA (sugars l1 d1 l1 d9 l6, PS) | 61 | –
55 | CACCAGTATTTCTTCTT (sugars l4 d11 l2, PS) | – | target mRNA inhibition (Human Neuronal Cell, 0.2 µM): 31%; target mRNA inhibition (Human Neuronal Cell, 1 µM): 27%
56 | TAAAATTATTTATACACCA (sugars llldllddddddlllldll, PS) | 7 | –
57 | GCTTCATATTTCTCCA (sugars l2 d11 l3, PS) | – | target mRNA inhibition (Human Neuronal Cell, 1 µM): 63%
58 | TTATAGCCATTCTATCT (sugars ldddldddddddlldll, PS) | 24 | –
59 | TTTTTTTCTTACTATCTTCA (sugars ldlldddddddddlddldll, PS) | 59 | –
60 | TTATAGCCATTCTATCT (sugars l4 d11 l2, PS) | – | target mRNA inhibition (Human Neuronal Cell, 0.2 µM): 63%; target mRNA inhibition (Human Neuronal Cell, 1 µM): 69%
61 | ATTTACACTTAATTATACTT (sugars llllddlddddddldddlll, PS) | 21 | –
62 | TATCTTTCCATTTATTTCC (sugars lddddldddddddddldll, PS) | 52 | –
63 | ACTGTTTATACCCTTTC (sugars l2 d9 l1 d3 l2, PS) | 49 | –
64 | CTATTCCAGTTTAAAT (sugars l4 d10 l2, PS) | – | target mRNA inhibition (Human Neuronal Cell, 0.2 µM): 33%; target mRNA inhibition (Human Neuronal Cell, 1 µM): 44%
65 | GCACATTCTTTCTATACC (sugars l1 d3 l1 d11 l2, PS) | 54 | –
66 | CAACATTATTAACCACCTT (sugars lldllddddddddddldll, PS) | 53 | –
67 | ACTCTGCAATACACCAA (sugars lddldddddddldldll, PS) | 66 | –
68 | CTGTATACACCATCCCA (sugars ldddlddddddldddll, PS) | 29 | –
69 | TTTATCAATATCTTCTCA (sugars lddlllddddddddldll, PS) | 67 | –

Row | Sequence | target mRNA inhibition (Human Neuronal Cell, 7.5 µM) [%] | further results
70 | AAATTATTTATACACCATCA (sugars lldlldldddddddldddll, PS) | 71 | –
71 | GTTTCCATCTACTATTAAT (sugars ldldddddddddddldlll, PS) | 44 | –
72 | TTATAGCCATTCTATCT (sugars l1 d1 l3 d10 l2, PS) | 67 | –
73 | ATATTGATTCAATTCCC (sugars lddlldddddddlldll, PS) | 63 | –
74 | TTATAGCCATTCTATCT (sugars l2 d9 l1 d1 l4, PS) | 49 | –
75 | TTCTACTATACTTTCCTCT (sugars ldddddddddddldlddll, PS) | 60 | –
76 | AAATTATTTATACACCATCA (sugars lllddllddddddlldddll, PS) | 64 | –
77 | CAAAGATCATTCTCAAC (sugars l2 d2 l1 d6 l6, PS) | 18 | –
78 | TTATAGCCATTCTATCT (sugars l1 d10 l1 d1 l4, PS) | 53 | –
79 | TTGATTCAATTCCCTTA (sugars ldlldddddddldldll, PS) | 68 | –
80 | CATTTACATTATTATTTAAC (sugars l2 d14 l4, PS) | – | target mRNA inhibition (Human Neuronal Cell, 0.2 µM): 1%; target mRNA inhibition (Human Neuronal Cell, 1 µM): -3%
81 | TATCTTTCCATTTATTTCCA (sugars l2 d16 l2, PS) | -12 | –
82 | TCATCATATTGAACCA (sugars l3 d10 l3, PS) | – | target mRNA inhibition (Human Neuronal Cell, 0.2 µM): 65%; target mRNA inhibition (Human Neuronal Cell, 1 µM): 68%
83 | ACTCTGCAATACACCAA (sugars l2 d11 l4, PS) | 59 | –
84 | AGTTCACTACTATTAC (sugars l3 d10 l3, PS) | – | target mRNA inhibition (Human Neuronal Cell, 0.2 µM): 52%; target mRNA inhibition (Human Neuronal Cell, 1 µM): 63%
85 | AATTATTTATACACCATCAT (sugars llldllddddddddlddlll, PS) | 64 | –
86 | ATATTGATTCAATTCCC (sugars ldldldddddddldlll, PS) | 70 | –
87 | TATGACTCCAATAATC (sugars l3 d10 l3, PS) | – | target mRNA inhibition (Human Neuronal Cell, 0.2 µM): 30%; target mRNA inhibition (Human Neuronal Cell, 1 µM): 44%
88 | CCTACATCTCATACTTGC (sugars l2 d12 l4, PS) | – | target mRNA inhibition [1]: 97.3%
89 | ATTCAGTTACCAACTA (sugars l3 d10 l3, PS) | – | target mRNA inhibition (Human Neuronal Cell, 0.2 µM): 39%; target mRNA inhibition (Human Neuronal Cell, 1 µM): 38%
90 | CTGTTTATACCCTTTCCA (sugars ldldldddddddddddll, PS) | 56 | –

— the OligoGym collection
